In this assay the target is recombinant human CETP protein (Homo sapiens (Human), UniProt P11597). The assay can be described thus: Test of CETP inhibition activity (in vitro, buffer-based). Format: biochemical. The note with it: reconstituted HDL with [14C]-labeled cholesteryl ester, acceptor lipoprotein, 37° C. How it is done:
Test of CETP Inhibition Activity (In Vitro, Buffer-Based)
(1) Preparation of Reconstituted HDL
Cholesterol (1.125 μmol), phosphatidyl choline (4.5 μmol) and [^14C]-labeled cholesteryl ester (2.0 μCi; 40 μl) were taken in a glass test tube and well mixed with a vortex, and dried under a nitrogen gas current so that it formed a thin film. The obtained mixture was dissolved in ethanol (200 μl), which was designated as Solution A. A PBS solution [a mixed solution of Na2HPO4 (30 mM), KH2PO4 (8.8 mM), NaCl (60 mM) and EDTA (pH 7.4; 0.67 mM); 4 ml] was taken in a tube and the reaction solution was vigorously stirred with a vortex under a nitrogen current. The above-described Solution A was gently injected into this mixture with a syringe and the reaction solution was vigorously stirred with a vortex for 5 minutes under a nitrogen current. Sodium cholate ([…]; 0.38 ml) was added to the obtained mixture and the reaction solution was stirred for 2 minutes. ApoA-I protein (3 mg) was added to the obtained mixture and the reaction solution was stirred for 2 minutes. The obtained mixture was adjusted to 5 ml with the PBS solution and then dialyzed with the PBS solution. The obtained mixture was designated as the reconstituted HDL.
(2) Preparation of Acceptor Lipoprotein
NaBr was added to the plasma of a healthy person and the density of the mixture was adjusted to 1.019, and the mixture was subjected to density gradient centrifugation (40000 rpm, for 16 hours) to remove the fraction having a density of less than 1.019. NaBr was added to the obtained mixture and the density of the solution was adjusted to 1.063, and the solution was subjected to density gradient centrifugation (40000 rpm, 18 hours) to provide the fraction consisting of IDL (intermediate density lipoprotein) and LDL (1.019<density<1.063). The obtained fraction was dialyzed with the PBS solution. The obtained mixture was designated as the acceptor lipoprotein.
(3) Measurement of CETP Inhibition Activity
A recombinant human CETP protein (manufactured by Roar Biomedical Inc.; 4.5 ng), the acceptor lipoprotein described in (2) above (32.5 μg) and 5,5′-dithio-bis-(2-nitrobenzoic acid) (7 mM, 15 μl) were taken in a 96 well plate and the total amount of the mixture was adjusted to 48.5 μl with the PBS solution. The test compound [DMSO solution (concentration: 0.15, 0.5, 1.5, 5, 15, 50, 150 and 500 μM; 1.5 μl] was added to each well and the mixture was incubated in a thermostatic bath at 37° C. for 60 minutes. The reconstituted HDL (50 μl) described in (1) above was added to each well and the mixture was reacted in a thermostatic bath at 37° C. for 60 minutes. The 96 well plate was moved onto ice and a precipitation reagent [a mixed solution of magnesium chloride (60 mM) and 0.1% dextran sulfate [1/1 (v/v)]; 15 μl] was added to each well, and then the mixture was allowed to stand on ice for 15 minutes. The reaction solution (80 μl) in each well was moved to a filter plate and centrifuged at 1500 rpm for 1 minute, and the filtrate which passed through the filter was designated as the HDL fraction and the radioactivity thereof was measured with a scintillation counter. The percentage decrease in radioactivity in the case where the test compound was added in comparison with that in case where the test compound was not added was designated as the percentage CETP inhibition. The IC50 value was calculated from the percentage CETP inhibition.

The structures appear in SMILES notation.

As a reminder, the IC50 is the midpoint of a concentration-inhibition curve.

Sequence of recombinant human CETP protein (P11597 18-493): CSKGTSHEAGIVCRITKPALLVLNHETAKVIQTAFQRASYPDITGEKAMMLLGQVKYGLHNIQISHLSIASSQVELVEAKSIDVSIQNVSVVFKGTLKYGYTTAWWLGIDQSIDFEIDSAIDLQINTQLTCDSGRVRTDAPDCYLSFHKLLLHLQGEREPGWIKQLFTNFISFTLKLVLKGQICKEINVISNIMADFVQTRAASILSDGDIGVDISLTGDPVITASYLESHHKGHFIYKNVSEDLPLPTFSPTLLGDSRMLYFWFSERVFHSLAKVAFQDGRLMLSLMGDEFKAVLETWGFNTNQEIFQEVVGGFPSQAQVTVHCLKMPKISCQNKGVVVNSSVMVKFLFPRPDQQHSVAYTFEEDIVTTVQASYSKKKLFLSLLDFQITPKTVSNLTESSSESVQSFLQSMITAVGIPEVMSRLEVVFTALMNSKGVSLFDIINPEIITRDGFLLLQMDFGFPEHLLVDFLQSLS

As to `CC1(C)Cc2nc(C3CCN(c4ncc(N5CC[C@H](O)C5)cn4)CC3)c([C@@H](F)c3ccc(C(F)(F)F)cc3)c(C3CCC(F)(F)CC3)c2[C@@H](O)C1` (single isomer, unassigned) [Example 57], the IC50 stood at 33 nM.
To `CN(CCO)Cc1cnc(N2CCC(c3nc4c(c(C5CCC(F)(F)CC5)c3[C@@H](F)c3ccc(C(F)(F)F)cc3)[C@@H](O)CC(C)(C)C4)CC2)nc1` (single isomer, unassigned) [Example 36, (−)-4-(4,4-difluorocyclohexyl)-3-{fluoro[4-(trifluoromethyl)phenyl]methyl}-2-{1-(5-{[(2-hydroxyethyl)(methyl)amino]methyl}pyrimidine-2-yl)piperidin-4-yl}-7,7-dimethyl-5,6,7,8-tetrahydroquinoline-5-ol] belongs 35 nM; to `CC(C)S(=O)(=O)N(C)Cc1cnc(N2CCC(c3nc4c(c(C5CCC(F)(F)CC5)c3[C@@H](F)c3ccc(C(F)(F)F)cc3)[C@@H](O)CC(C)(C)C4)CC2)nc1` (single isomer, unassigned) [Example 52, 4-(4,4-Difluorocyclohexyl)-3-{fluoro[4-(trifluoromethyl)phenyl]methyl}-7,7-dimethyl-2-[1-(5-{[methyl(propan-2-ylsulfonyl)amino]methyl}pyrimidin-2-yl)piperidin-4-yl]-5,6,7,8-tetrahydroquinolin-5-ol], 6 nM.
To `COc1cnc(N2CCC(c3nc4c(c(C5CCC(F)(F)CC5)c3[C@@H](F)c3ccc(C(F)(F)F)cc3)[C@@H](O)CC(C)(C)C4)CC2)nc1` (single isomer, unassigned) [Example 3, (−)-4-(4,4-Difluorocyclohexyl)-3-{fluoro[4-(trifluoromethyl)phenyl]methyl}-2-[1-(5-methoxypyrimidin-2-yl)piperidin-4-yl]-7,7-dimethyl-5,6,7,8-tetrahydroquinolin-5-ol] belongs 51 nM; to `CN1CC[C@@H](Oc2cnc(N3CCC(c4nc5c(c(C6CCC(F)(F)CC6)c4C(F)c4ccc(C(F)(F)F)cc4)C(O)CC(C)(C)C5)CC3)nc2)C1` (single isomer, unassigned) [Example 41], 16 nM.
As for `CC1(C)Cc2nc(C3CCN(c4ncc(C5CC5)cn4)CC3)c([C@@H](F)c3ccc(C(F)(F)F)cc3)c(C3CCC(F)(F)CC3)c2[C@@H](O)C1` (single isomer, unassigned) [Example 19, (−)-2-[1-(5-Cyclopropylpyrimidin-2-yl)piperidin-4-yl]-4-(4,4-difluorocyclohexyl)-3-{fluoro[4-(trifluoromethyl)phenyl]methyl}-7,7-dimethyl-5,6,7,8-tetrahydroquinolin-5-ol], the IC50 worked out at 198 nM.
To `CN1CCC(Oc2cnc(N3CCC(c4nc5c(c(C6CCC(F)(F)CC6)c4[C@@H](F)c4ccc(C(F)(F)F)cc4)[C@@H](O)CC(C)(C)C5)CC3)nc2)CC1` (single isomer, unassigned) [Example 38, 4-(4,4-Difluorocyclohexyl)-3-{fluoro[4-(trifluoromethyl)phenyl]methyl}-7,7-dimethyl-2-(1-{5-[(1-methylpiperidin-4-yl)oxy]pyrimidin-2-yl}piperidin-4-yl)-5,6,7,8-tetrahydroquinolin-5-ol] belongs 10 nM; to `CN(CCO)c1cnc(N2CCC(c3nc4c(c(C5CCC(F)(F)CC5)c3[C@@H](F)c3ccc(C(F)(F)F)cc3)[C@@H](O)CC(C)(C)C4)CC2)nc1` (single isomer, unassigned) [Example 56, 4-(4,4-Difluorocyclohexyl)-3-{fluoro[4-(trifluoromethyl)phenyl]methyl}-2-(1-{5-[(2-hydroxyethyl)(methyl)amino]pyrimidin-2-yl}piperidin-4-yl)-7,7-dimethyl-5,6,7,8-tetrahydroquinolin-5-ol], 28 nM.
`CN1CCN(c2cnc(N3CCC(c4nc5c(c(C6CCC(F)(F)CC6)c4[C@@H](F)c4ccc(C(F)(F)F)cc4)[C@@H](O)CC(C)(C)C5)CC3)nc2)CC1` (single isomer, unassigned) [Example 8, (−)-4-(4,4-Difluorocyclohexyl)-3-{fluoro[4-(trifluoromethyl)phenyl]methyl}-7,7-dimethyl-2-{1-[5-(4-methylpiperazin-1-yl)pyrimidin-2-yl]piperidin-4-yl}-5,6,7,8-tetrahydroquinolin-5-ol]: the IC50 came out at 19 nM.
Regarding `CC1(C)Cc2nc(C3CCN(c4ncc(OC(F)F)cn4)CC3)c([C@@H](F)c3ccc(C(F)(F)F)cc3)c(C3CCC(F)(F)CC3)c2[C@@H](O)C1` (single isomer, unassigned) [Example 48, (−)-4-(4,4-Difluorocyclohexyl)-2-{1-[5-(difluoromethoxy)pyrimidin-2-yl]piperidin-4-yl}-3-{fluoro[4-(trifluoromethyl)phenyl]methyl}-7,7-dimethyl-5,6,7,8-tetrahydroquinolin-5-ol], the IC50 amounted to 42 nM.
`C[C@@H](O)COc1cnc(N2CCC(c3nc4c(c(C5CCC(F)(F)CC5)c3[C@@H](F)c3ccc(C(F)(F)F)cc3)[C@@H](O)CC(C)(C)C4)CC2)nc1` (single isomer, unassigned) [Example 42]: the IC50 was determined as 22 nM.
With `CC1(C)Cc2nc(C3CCN(c4ncc(CO)cn4)CC3)c([C@@H](F)c3ccc(C(F)(F)F)cc3)c(C3CCC(F)(F)CC3)c2[C@@H](O)C1` [Example 20, (−)-4-(4,4-Difluorocyclohexyl)-3-{fluoro[4-(trifluoromethyl)phenyl]methyl}-2-[1-[5-(hydroxymethyl)pyrimidin-2-yl]piperidin-4-yl]-7,7-dimethyl-5,6,7,8-tetrahydroquinolin-5-ol], the IC50 was 255 nM.
Regarding `CC1(C)Cc2nc(C3CCN(c4ncc(N5CCC(O)CC5)cn4)CC3)c([C@@H](F)c3ccc(C(F)(F)F)cc3)c(C3CCC(F)(F)CC3)c2[C@@H](O)C1` (single isomer, unassigned) [Example 11, (−)-4-(4,4-Difluorocyclohexyl)-3-{fluoro[4-(trifluoromethyl)phenyl]methyl}-2-{1-[5-(4-hydroxypiperidin-1-yl)pyrimidin-2-yl]piperidin-4-yl}-7,7-dimethyl-5,6,7,8-tetrahydroquinolin-5-ol], the IC50 was found to be 46 nM.
Take `CC1(C)Cc2nc(C3CCN(c4ncc(S(C)(=O)=O)cn4)CC3)c([C@@H](F)c3ccc(C(F)(F)F)cc3)c(C3CCC(F)(F)CC3)c2[C@@H](O)C1` (single isomer, unassigned) [Example 54, (−)-4-(4,4-Difluorocyclohexyl)-3-{fluoro[4-(trifluoromethyl)phenyl]methyl}-7,7-dimethyl-2-{1-[5-(methylsulphonyl)pyrimidin-2-yl]piperidin-4-yl}-5,6,7,8-tetrahydroquinolin-5-ol]: the IC50 turned out to be 32 nM.
To `CC1(C)Cc2nc(C3CCN(c4ncc(OCCC(F)(F)F)cn4)CC3)c([C@@H](F)c3ccc(C(F)(F)F)cc3)c(C3CCC(F)(F)CC3)c2[C@@H](O)C1` (single isomer, unassigned) [Example 47, (−)-4-(4,4-Difluorocyclohexyl)-3-{fluoro[4-(trifluoromethyl)phenyl]methyl}-7,7-dimethyl-2-{1-[5-(3,3,3-trifluoropropoxyl)pyrimidin-2-yl]piperidin-4-yl}-5,6,7,8-tetrahydroquinolin-5-ol] belongs 31 nM.
Next, `CC1(C)Cc2nc(C3CCN(c4ncc(OCCCO)cn4)CC3)c([C@@H](F)c3ccc(C(F)(F)F)cc3)c(C3CCC(F)(F)CC3)c2[C@@H](O)C1` [Example 46, (−)-4-(4,4-Difluorocyclohexyl)-3-{fluoro[4-(trifluoromethyl)phenyl]methyl}-2-{1-[5-(3-hydroxypropoxy)pyrimidin-2-yl]piperidin-4-yl}-7,7-dimethyl-5,6,7,8-tetrahydroquinolin-5-ol]: 16 nM.

The values are drawn from patent publication US9187450B2, “Substituted pyridine compound” (Daiichi Sankyo Company, Limited, priority 2010, dated 2015).
